Data as given in PMC8205030, “Methoxy and bromo scans on N-(5-methoxyphenyl) methoxybenzenesulphonamides reveal potent cytotoxic compounds, especially against the human breast adenocarcinoma MCF7 cell line” (Journal of Enzyme Inhibition and Medicinal Chemistry, 2021).

Key:
[1] = system: HT-29 cells; assay: Apoptotic cell death quantification (Annexin V-FITC/PI), HT-29; assay type: cell-based, human; conditions: for Early apoptosis / Late apoptosis / Live (AnV–/PI–) / Necrosis: 72 h; for Apoptotic response: HT-29, 72 h
Experimental: MCF7, HeLa, and HT-29 apoptotic cells were quantified using an Annexin V-FITC/PI apoptosis detection kit (Immunostep, Salamanca, Spain) according to the manufacturer’s guidelines. 1.5 ml/well of cells in the exponential growth phase at 2 × 10^4 cells/mL were seeded onto 12-well plates and left to attach overnight. After 24 h incubation, cells were treated with compound 25 at 87.5 or 175 nM. 72 h post-treatment, attached and floating cells of treated and untreated wells were collected, centrifuged, resuspended in the Annexin V binding buffer, and stained with Annexin V-FITC/PI. Cells were then incubated in darkness at room temperature for 15 min and a total of 30,000 cells were acquired and analysed using the BD Accuri™ C6 Plus Flow Cytometer and Software (version 1.0.264.21, BD Biosciences, San José, CA, USA), respectively. Compounds were dissolved in DMSO and the final solvent concentrations never exceeded 0.5% (v/v). Control wells included cells with 0.5% (v/v) DMSO.

[2] = system: MCF7 (human breast carcinoma) cells; assay: Cell growth assay (XTT), MCF7; assay type: cell-based; conditions: Homo sapiens, MCF7; 72 h drug exposure, XTT; read-out: Antiproliferative activity IC50 MCF7
Method in brief: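 Cells (1.5 × 10^4 cells/mL for MCF7, HeLa, HEK293; 3 × 10^4 cells/mL for HT-29) attached 24 h, then treated 72 h at 37 °C, 5% CO2. Screened at 1 µM; IC50 versus untreated controls from 10^−5 to 10^−10 M by nonlinear fit. XTT/PMS absorbance at 450 nm after 4 h (MCF7, HeLa) or 6 h (HT-29, HEK293); HT-29 with 10 µM verapamil.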

[3] = system: p-62 in MCF7 cells; assay: Western blot of autophagosome marker p-62, MCF7; assay type: cell-based, human; conditions: MCF7, 175 nM, 24 h
Experimental: MCF7, HeLa and HT-29 cells in an exponential growth phase at 2 × 10^4 cells/mL were seeded in Petri dishes (20 × 100 mm) (10 ml/dish). After 24 h incubation, cells were treated with compound 25 at 175 nM, and the levels of p-62 in treated and untreated cells were measured at 24 h post-treatment. The culture medium was removed, cells were washed with PBS and resuspended in 1 ml lysis buffer (50 mM Tris, 130 mM NaCl, 1 mM EDTA, 1% Triton X-100) containing protease inhibitors (Complete, Roche Applied Science, Indianapolis). Cells were harvested and incubated with lysis buffer for 30 min at 4 °C in constant agitation. Cell extracts were centrifuged at 12,000 rpm for 15 min at 4 °C and the supernatants were stored at −80 °C. Protein concentrations were determined using Bradford (BioRad, Hercules, CA) method taking BSA (Bovine Serum Albumin) as standard. Protein extracts were used for electrophoresis mixing with loading buffer (4% SDS, 0.05% bromophenol blue, 20% glycerine, 2% β-mercaptoethanol, and Tris 100 mM at pH 6.8). Proteins were then denatured at 95 °C for 7 min. Protein samples (50 μg/lane) were subjected to electrophoresis on 8% acrylamide gel and SDS-PAGE running buffer at constant voltage (140 V). Then, acrylamide gels were transferred to a PVDF membrane (Merck Millipore, Burlington, Massachusetts, USA) using a semi-dry transfer system for 30 min at constant voltage (15 V). […]

IC50 [2]: 86 nM
Compound: COc1ccc(S(=O)(=O)N(CC#N)c2cc(OC)c(Br)cc2OC)cc1 [Compound 25, N-(4-bromo-2,5-dimethoxyphenyl)-N-(cyanomethyl)-4-methoxybenzenesulphonamide]
Early apoptosis ([1]; HT-29, 87.5 nM): 16.4%
Late apoptosis ([1]; HT-29, 87.5 nM): 6.8%
Live (AnV–/PI–) ([1]; HT-29, 87.5 nM): 76.2%
Necrosis ([1]; HT-29, 87.5 nM): 0.7%
Early apoptosis ([1]; HT-29, 175 nM): 20.4%
Late apoptosis ([1]; HT-29, 175 nM): 15.3%
Live (AnV–/PI–) ([1]; HT-29, 175 nM): 61.7%
Necrosis ([1]; HT-29, 175 nM): 2.5%
Apoptotic response ([1]; lower end of printed span (87.5 nM)): 23%
Apoptotic response ([1]; upper end of printed span (175 nM)): 36%
p-62 levels [3]: decay in p-62 levels
